System: Trichoderma reesei
Test: T. reesei cell kill, CFU count on PDA plates
Type: cell-based
Conditions: pH 4, 24 hours, 40° C.
Procedure: Sodium benzoate was added to separate T. reesei aliquots to a final concentration of 2.5 g/L sodium benzoate or 5 g/L sodium benzoate. The aliquots were then adjusted to pH 4 and incubated for 24 hours at 40° C. After 24 hours of incubation all aliquots were pH adjusted to 4.8 using 10% (w/w) sodium hydroxide. Each aliquot was then serially diluted with sterile water, spread plated onto PDA, and incubated at 25° C. The incubated PDA plates were then counted for CFU.
The aliquots were then adjusted to pH 4 and incubated for 24 hours at 40° C. After 24 hours of incubation all aliquots were pH adjusted to 4.8 using 10% (w/w) sodium hydroxide. Each aliquot was then serially diluted with sterile water, spread plated onto PDA, and incubated at 25° C. The incubated PDA plates were then counted for CFU.

SMILES: O=C([O-])c1ccccc1.[Na+] [sodium benzoate]
- log reduction of viable cells (2.5 g/L sodium benzoate): 5 log
- CFU present after incubation (5 g/L sodium benzoate): less than 10 CFU
- log reduction of viable cells (5 g/L sodium benzoate): 7 log

Reference: patent US8679824B2, “Fermentation broth formulations” (Danisco US Inc., priority 2009, dated 2014)
